Assay results reported in patent EP0361645B1, “Organic hydrazine derivatives for pharmaceutical use” (ROHM AND HAAS COMPANY, priority 1988, dated 1990).

Tests used:
[1] = test system: Kr cells; assay: Process elaboration and inhibition of cell proliferation in Kr cells; assay type: cell-based, Drosophila; details: at saturating concentrations
Description: The invention will now be further described by way of exemplification and by reference to the drawings in which; • Figure 1. Both 20-hydroxyecdysone and Example No. 3 induce process elaboration (A) and inhibition of cell proliferation (B) in Kr cells in a dose-dependent manner. Initial cell density was 2 X 10^6 cells/ml; after incubation of 1 ml aliquots of the cells with the compound for 48 hours the cells were triturated gently and the percentage of cells responding (with processes longer than approximately 17 um, see Cherbas et al. 189 Wilhelm Roux's Arch. 1 (1980)) and total cell density was determined by hemocytom- eter counting, relative to ethanol (1 ul)-treated controls. Determinations were in triplicate for each dose. […] Induction of acetylcholinesterase by varying concentrations of 20-hydroxyecdysone and Example No. 3. Kr cells at an initial density of 3 X 10^6 cells/ml (10 ml per sample) were incubated with the agonist for three days. After harvesting, by centrifugation at 3000 X g, the cell pellets were washed with Robb's Drosophila saline (18, 2 X 5 ml) at 4 ° C, then lysed by sonication in 1 ml of phosphate buffer (pH 7.4, I = 0.1 M) containing 0.5 M NaCI, 0.25 M EDTA and 0.5% TRITON? X-100. See Cherbas, 197 Science 275 (1977). Triton is a registered trademark of Rohm and Haas Company for a alkylaryl polyoxyethylene glycol surfactant. After centrifugation at 16,000 X g, the supernatants were assayed for acetylcholinesterase activity by an adaptation of the method of Ellman et al., 7 Biochem. Pharmacol. 88 (1961), by subtracting out any 412 nm absorbance observed in incubations in the presence of 2 X 10-5 eserine sulfate. Thus reaction mixtures contained 50 ul of enzyme extract, 20 ul eserine (blank tubes only) and 1.0 ml of 0.5 mM acetylthiocholine, 0.3 mM dithiobisnitrobenzoic acid in phosphate buffer (pH 7.4, I = 0.1 M). Incubations were at 25 ° C for two hours; reactions in active tubes were terminated by addition of eserine. Absorbance at 412 nm was then measured. Protein concentration in extracts was measured by the Biorad method. […] Scatchard plot of ^3H-ponasterone A binding to Kr cell cytosolic receptor extracts in the presence of differing concentrations of Example No. 3. Cytosolic extract preparation and ecdysteroid receptor assays were essentially as described in Sage, 111 Meth. in Enzymol. 458 (1985). Example No. 3 was added in 1 ul DMSO to 50 ul of radioligand in 10 mM Tris buffer (pH 7.2) and 50 ul of undiluted cytosol extract. […] Ecdysteroid titers were measured by a radioimmunoassay adapted from Warren et al., 40 Experientia 393 (1984) with Protein A-Staph. aureus suspension (Sigma) used as the reagent to separate bound from free ligand. […]

[2] = molecular target: T1, ecdysone receptor (Drosophila melanogaster, UniProt P34021); assay: ^3H-ponasterone A binding to / displacement from Kr cell cytosolic receptor extracts; details: for displacement of ^3H-ponasterone A from cytosolic receptor extracts: at saturating concentrations
T1 construct: endogenous in cells; host or cells: Drosophila Kr (Kc) cells, undiluted cytosolic extract
T1 sequence (P34021 1-878): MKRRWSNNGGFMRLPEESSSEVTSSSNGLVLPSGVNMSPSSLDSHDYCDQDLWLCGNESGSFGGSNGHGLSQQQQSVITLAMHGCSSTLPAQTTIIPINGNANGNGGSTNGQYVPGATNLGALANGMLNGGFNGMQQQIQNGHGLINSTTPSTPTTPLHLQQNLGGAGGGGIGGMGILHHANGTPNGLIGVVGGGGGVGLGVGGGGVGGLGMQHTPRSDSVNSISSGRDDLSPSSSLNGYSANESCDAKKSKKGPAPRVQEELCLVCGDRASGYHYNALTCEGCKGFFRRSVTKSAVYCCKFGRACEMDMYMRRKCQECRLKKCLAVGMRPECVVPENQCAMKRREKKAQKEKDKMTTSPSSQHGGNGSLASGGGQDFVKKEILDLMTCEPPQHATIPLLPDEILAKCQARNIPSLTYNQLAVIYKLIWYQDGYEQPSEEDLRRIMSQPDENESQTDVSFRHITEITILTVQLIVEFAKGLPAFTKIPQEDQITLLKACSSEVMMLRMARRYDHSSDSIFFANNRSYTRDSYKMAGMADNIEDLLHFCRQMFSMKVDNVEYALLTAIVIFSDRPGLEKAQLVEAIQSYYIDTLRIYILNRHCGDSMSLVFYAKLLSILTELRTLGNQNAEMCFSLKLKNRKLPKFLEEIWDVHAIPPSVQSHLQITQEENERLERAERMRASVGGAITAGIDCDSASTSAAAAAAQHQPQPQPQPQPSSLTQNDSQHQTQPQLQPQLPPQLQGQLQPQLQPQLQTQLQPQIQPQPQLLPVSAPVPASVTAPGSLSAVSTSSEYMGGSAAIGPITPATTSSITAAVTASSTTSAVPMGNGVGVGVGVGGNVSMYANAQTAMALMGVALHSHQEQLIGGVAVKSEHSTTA
T1 sequence (P20153 1-508 partner): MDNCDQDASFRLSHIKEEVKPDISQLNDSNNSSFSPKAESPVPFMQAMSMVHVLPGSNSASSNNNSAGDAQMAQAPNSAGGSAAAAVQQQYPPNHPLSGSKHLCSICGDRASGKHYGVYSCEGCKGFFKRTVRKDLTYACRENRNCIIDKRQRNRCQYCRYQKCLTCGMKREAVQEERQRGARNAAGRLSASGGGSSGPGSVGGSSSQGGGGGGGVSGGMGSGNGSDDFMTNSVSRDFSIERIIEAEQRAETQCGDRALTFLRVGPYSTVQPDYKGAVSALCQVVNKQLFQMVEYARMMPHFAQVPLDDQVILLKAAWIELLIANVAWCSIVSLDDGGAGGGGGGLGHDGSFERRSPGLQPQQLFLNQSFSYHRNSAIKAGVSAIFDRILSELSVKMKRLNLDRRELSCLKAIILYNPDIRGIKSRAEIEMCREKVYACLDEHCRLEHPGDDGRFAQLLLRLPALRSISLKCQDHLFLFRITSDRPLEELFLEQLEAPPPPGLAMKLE
Description: The invention will now be further described by way of exemplification and by reference to the drawings in which; • Figure 1. Both 20-hydroxyecdysone and Example No. 3 induce process elaboration (A) and inhibition of cell proliferation (B) in Kr cells in a dose-dependent manner. Initial cell density was 2 X 10^6 cells/ml; after incubation of 1 ml aliquots of the cells with the compound for 48 hours the cells were triturated gently and the percentage of cells responding (with processes longer than approximately 17 um, see Cherbas et al. 189 Wilhelm Roux's Arch. 1 (1980)) and total cell density was determined by hemocytom- eter counting, relative to ethanol (1 ul)-treated controls. Determinations were in triplicate for each dose. […] Induction of acetylcholinesterase by varying concentrations of 20-hydroxyecdysone and Example No. 3. Kr cells at an initial density of 3 X 10^6 cells/ml (10 ml per sample) were incubated with the agonist for three days. After harvesting, by centrifugation at 3000 X g, the cell pellets were washed with Robb's Drosophila saline (18, 2 X 5 ml) at 4 ° C, then lysed by sonication in 1 ml of phosphate buffer (pH 7.4, I = 0.1 M) containing 0.5 M NaCI, 0.25 M EDTA and 0.5% TRITON? X-100. See Cherbas, 197 Science 275 (1977). Triton is a registered trademark of Rohm and Haas Company for a alkylaryl polyoxyethylene glycol surfactant. After centrifugation at 16,000 X g, the supernatants were assayed for acetylcholinesterase activity by an adaptation of the method of Ellman et al., 7 Biochem. Pharmacol. 88 (1961), by subtracting out any 412 nm absorbance observed in incubations in the presence of 2 X 10-5 eserine sulfate. Thus reaction mixtures contained 50 ul of enzyme extract, 20 ul eserine (blank tubes only) and 1.0 ml of 0.5 mM acetylthiocholine, 0.3 mM dithiobisnitrobenzoic acid in phosphate buffer (pH 7.4, I = 0.1 M). Incubations were at 25 ° C for two hours; reactions in active tubes were terminated by addition of eserine. Absorbance at 412 nm was then measured. Protein concentration in extracts was measured by the Biorad method. […] Scatchard plot of ^3H-ponasterone A binding to Kr cell cytosolic receptor extracts in the presence of differing concentrations of Example No. 3. Cytosolic extract preparation and ecdysteroid receptor assays were essentially as described in Sage, 111 Meth. in Enzymol. 458 (1985). Example No. 3 was added in 1 ul DMSO to 50 ul of radioligand in 10 mM Tris buffer (pH 7.2) and 50 ul of undiluted cytosol extract. After incubation overnight at 0.5 ° C, bound label was separated from free by addition of 300 ul 1% HCI-washed charcoal (Sigma) and 0.1% Dextran T70 (Pharmacia) in Tris buffer, centrifugation (13,000 X g, 3 min, 4 ° C) and liquid scintillation counting of a 300 ul aliquot of the supernatant in 15 ml Hydrofluor (National Diagnostics). Points are means of duplicate determinations. […] Relative ability of 20 hydroxyecdysone and Example No. 3 to displace ^3H-ponasterone A from cytosolic receptor extracts. Conditions were as in Figure 3 except that only 0.5 nM ponasterone A was used. • Points are means of duplicate determinations. For 20-hydroxyecdysone EC50 = 0.1 uM while for Example No. 3 EC50 = 3.0 uM. Control binding = 10 femtomoles ^3H-ponasterone A bound per mg cytosol protein. • Figure 4. Effects of 10 ppm Example No. 3 administered in artificial diet to newly ecdysed fourth instar (L4) M. sexta, monitoring (A)immunoreactive hemolymph ecdysteroid titers and (B)weight gain. Ecdysteroid titers were measured by a radioimmunoassay adapted from Warren et al., 40 Experientia 393 (1984) with Protein A-Staph. aureus suspension (Sigma) used as the reagent to separate bound from free ligand. The antiecdysone antiserum was formed by reaction of 20-hydroxyecdysone with carboxymethox- yamine resulting in the corresponding ecdysteroid 6-oxime acid. […] All samples were diluted appropriately in borate buffer pH 8.0 and assayed in duplicate. […]

[3] = test system: antiecdysone antiserum; assay: Binding by antiecdysone antiserum (radioimmunoassay); details: ^3H-alpha ecdysone as the radioligand
Description: The invention will now be further described by way of exemplification and by reference to the drawings in which; • Figure 1. Both 20-hydroxyecdysone and Example No. 3 induce process elaboration (A) and inhibition of cell proliferation (B) in Kr cells in a dose-dependent manner. Initial cell density was 2 X 10^6 cells/ml; after incubation of 1 ml aliquots of the cells with the compound for 48 hours the cells were triturated gently and the percentage of cells responding (with processes longer than approximately 17 um, see Cherbas et al. 189 Wilhelm Roux's Arch. 1 (1980)) and total cell density was determined by hemocytom- eter counting, relative to ethanol (1 ul)-treated controls. Determinations were in triplicate for each dose. […] Induction of acetylcholinesterase by varying concentrations of 20-hydroxyecdysone and Example No. 3. Kr cells at an initial density of 3 X 10^6 cells/ml (10 ml per sample) were incubated with the agonist for three days. After harvesting, by centrifugation at 3000 X g, the cell pellets were washed with Robb's Drosophila saline (18, 2 X 5 ml) at 4 ° C, then lysed by sonication in 1 ml of phosphate buffer (pH 7.4, I = 0.1 M) containing 0.5 M NaCI, 0.25 M EDTA and 0.5% TRITON? X-100. See Cherbas, 197 Science 275 (1977). Triton is a registered trademark of Rohm and Haas Company for a alkylaryl polyoxyethylene glycol surfactant. After centrifugation at 16,000 X g, the supernatants were assayed for acetylcholinesterase activity by an adaptation of the method of Ellman et al., 7 Biochem. Pharmacol. 88 (1961), by subtracting out any 412 nm absorbance observed in incubations in the presence of 2 X 10-5 eserine sulfate. […] Absorbance at 412 nm was then measured. Protein concentration in extracts was measured by the Biorad method. […] Ecdysteroid titers were measured by a radioimmunoassay adapted from Warren et al., 40 Experientia 393 (1984) with Protein A-Staph. aureus suspension (Sigma) used as the reagent to separate bound from free ligand. […]

Row | SMILES | ecdysone-like responses in whole Kr cells [1] | displacement of ^3H-ponasterone A from cytosolic receptor extracts [2] | further results
1 | O=C(NC(=O)c1c(F)cccc1F)Nc1cc(Cl)c(Oc2ncc(C(F)(F)F)cc2Cl)c(Cl)c1 [1-(3,5-dichloro-4-(3-chloro-5-trifluoromethyl-2-pyridyloxy)phenyl)-3-(2,6-difluorobenzoyl)urea] | failed to produce ecdysone-like responses | did not displace | –
2 | O=C(NC(=O)c1c(F)cccc1F)Nc1ccc(Cl)cc1 [1-(4-chloro-phenyl)-3-(2,6-difluorobenzoyl)urea] | failed to produce ecdysone-like responses | did not displace | –
3 | CC(C)CC[C@@H](O)[C@](C)(O)[C@H]1CC[C@@]2(O)C3=CC(=O)[C@@H]4C[C@@H](O)[C@@H](O)C[C@]4(C)[C@H]3CC[C@]12C [^3H-ponasterone A, ponasterone A] | – | – | Bmax ([2]; Figure 3A legend, in the absence of Example No. 3): 0.79 nm; Kd ([2]; Scatchard plot, in the absence of Example No. 3): 0.29 nM; Bmax ([2]; text b415, in the absence of Example No. 3): 0.71 nM
4 | C[C@H]([C@H](O)CCC(C)(C)O)[C@H]1CC[C@@]2(O)C3=CC(=O)[C@@H]4C[C@@H](O)[C@@H](O)C[C@]4(C)[C@H]3CC[C@]12C [alpha-ecdysone, reference compound] | – | – | fold greater affinity than 20-hydroxyecdysone [3]: 2.7 fold
